Read-outs that look alike come from different tables or passages of the source.
Tested on: HCT116 MTAP-deleted cell lines
Experiment: Cell viability assay (CellTiter-Glo, 7 days), HCT116 MTAP-deleted
Assay type: cell-based
Conditions: Homo sapiens, HCT-116
Summary of the method: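 Dose-response, PRMT5 inhibitors from DMSO serial dilution, pre-spotted; cells seeded onto compound plates. 7 d, 37 °C/5% CO2/90% RH. Readout: CTG luminescence → CC50.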

[1] = cell viability assay, HCT116 MTAP-deleted, class symbols, read-out: CC50
[2] = cell viability, HCT116 MTAP-deleted, class symbols, read-out: CC50

Compound | CC50 [1] | CC50 [2] | also measured
Cc1ncc2c(N)nc3cnc(C(=O)N4CC[C@H]5C[C@@H]4c4ccc(C(F)(F)F)cc4O5)cc3n12 [Ff-369, (4-amino-1-methylimidazo[1,5-a]pyrido[3,4-e]pyrazin-8-yl)((2S,6R)-9-(trifluoromethyl)-3,4-dihydro-2H-2,6-methanobenzo[b][1,5]oxazocin-5(6H)-yl)methanone] | < 100 nM |  | 
CC(=O)N1CC(C#Cc2ccc3c(c2)OC[C@H]3N(C)C(=O)c2ccc3nc(N)c4cncn4c3c2)C1 [Ff-529] | 100 to 1000 nM |  | 
Cc1ncc2c(N)nc3ccc(C(=O)N4C[C@@H](C)O[C@@H]5Cc6cc(C(F)(F)F)ccc6[C@@H]54)cc3n12 [Ff-631, (4-amino-1-methylimidazo[1,5-a]quinoxalin-8-yl)((2R,4aS,9aR)-2-methyl-7-(trifluoromethyl)-2,3,9,9a-tetrahydroindeno[2,1-b][1,4]oxazin-4(4aH)-yl)methanone] | 100 to 1000 nM |  | 
Nc1nc2cc(F)c(C(=O)N3CCO[C@@H]4Cc5cc(Br)ccc5[C@@H]43)cc2n2cncc12 (single isomer, unassigned) [Ff-76] |  | < 100 nM | 
CN(C(=O)c1cc2c(cc1F)nc(N)c1cncn12)[C@@H]1COc2cc(C3CC3(F)F)ccc21 (stereo partly drawn) [Ff-574, 4-amino-N-((3S)-6-(2,2-difluorocyclopropyl)-2,3-dihydrobenzofuran-3-yl)-7-fluoro-N-methylimidazo[1,5-a]quinoxaline-8-carboxamide] | < 100 nM |  | 
COc1cc(C(F)(F)F)ccc1C1CCCCN1C(=O)c1cc2c(cc1F)nc(N)c1cncn12 (stereo not drawn) [Ff-143, (4-amino-7-fluoroimidazo[1,5-a]quinoxalin-8-yl)(2-(2-methoxy-4-(trifluoromethyl)phenyl)piperidin-1-yl)methanone] |  | 100 to 1000 nM | 
CN(C(=O)c1cc2c(cc1F)nc(N)c1cncn12)[C@@H]1COc2cc(C3CC(F)(F)C3)ccc21 [Ff-572, (S)-4-amino-N-(6-(3,3-difluorocyclobutyl)-2,3-dihydrobenzofuran-3-yl)-7-fluoro-N-methylimidazo[1,5-a]quinoxaline-8-carboxamide] | < 100 nM |  | 
Cc1ncc2c(N)nc3ccc(C(=O)N(C)[C@@H]4COc5c4ccc(C(F)(F)F)c5F)cc3n12 [Ff-355, (S)-4-amino-N-(7-fluoro-6-(trifluoromethyl)-2,3-dihydrobenzofuran-3-yl)-N,1-dimethylimidazo[1,5-a]quinoxaline-8-carboxamide] |  | 100 to 1000 nM | 
Nc1nc2cc(F)c(C(=O)N3C[C@@H](F)C[C@@H]4Oc5cc(C(F)(F)F)ccc5[C@@H]43)cc2n2cncc12 [Ff-120, (4-amino-7-fluoroimidazo[1,5-a]quinoxalin-8-yl)((3S,4aS,9bS)-3-fluoro-7-(trifluoromethyl)-3,4,4a,9b-tetrahydrobenzofuro[3,2-b]pyridin-1(2H)-yl)methanone] |  | < 100 nM | 
CN(C(=O)c1cc2c(cc1F)nc(N)c1cncn12)[C@@H]1COc2cc(OC(F)(F)F)ccc21 (single isomer, unassigned) [Ff-557] | < 100 nM |  | 
Cc1ncn2c1c(N)nc1cc(Cl)c(C(=O)N3CCC[C@@H]4Oc5nc(C(F)(F)F)ccc5[C@@H]43)cc12 (racemic) [Fg-29, Rac-(4-amino-7-chloro-3-methylimidazo[1,5-a]quinoxalin-8-yl)((4aS,9bS)-7-(trifluoromethyl)-3,4,4a,9b-tetrahydrofuro[2,3-b:4,5-b′]dipyridin-1(2H)-yl)methanone] | < 100 nM |  | 
CN(C(=O)c1cc2c(cc1F)nc(N)c1cncn12)[C@@H]1COc2cc(C#CC3(C(F)(F)F)CC3)ccc21 [Ff-522, (S)-4-amino-7-fluoro-N-methyl-N-(6-((1-(trifluoromethyl)cyclopropyl)ethynyl)-2,3-dihydrobenzofuran-3-yl)imidazo[1,5-a]quinoxaline-8-carboxamide] | 100 to 1000 nM |  | 
Nc1nc2cnc(C(=O)N3CCC[C@@H]4Oc5cc(OC(F)(F)F)c(F)cc5[C@@H]43)cc2n2cncc12 (racemic) [Ff-338, Rac-(4-aminoimidazo[1,5-a]pyrido[3,4-e]pyrazin-8-yl)((4aS,9bS)-8-fluoro-7-(trifluoromethoxy)-3,4,4a,9b-tetrahydrobenzofuro[3,2-b]pyridin-1(2H)-yl)methanone] |  | < 100 nM | 
CC1(C)C[C@@H]2Oc3cc(C(F)(F)F)ccc3[C@@H]2N(C(=O)c2cc3c(cn2)nc(N)c2cncn23)C1 (racemic) [Ff-258, Rac-(4-aminoimidazo[1,5-a]pyrido[3,4-e]pyrazin-8-yl)((4aR,9bR)-3,3-dimethyl-7-(trifluoromethyl)-3,4,4a,9b-tetrahydrobenzofuro[3,2-b]pyridin-1(2H)-yl)methanone] |  | < 100 nM | 
C[C@H]1CN(C(=O)c2cc3c(cc2F)nc(N)c2cncn23)[C@H]2Cc3ccccc3[C@H]2O1 (single isomer, unassigned) [Ff-623] | 100 to 1000 nM |  | 
CN(C(=O)c1cc2c(cc1F)nc(N)c1cncn12)[C@@H]1CCc2nc(C(F)(F)F)ccc21 [Ff-318, (R)-4-amino-7-fluoro-N-methyl-N-(2-(trifluoromethyl)-6,7-dihydro-5H-cyclopenta[b]pyridin-5-yl)imidazo[1,5-a]quinoxaline-8-carboxamide] |  | < 100 nM | 
Nc1nc2cc(F)c(C(=O)N3CCO[C@@H]4Cc5cc(OC(F)(F)F)ccc5[C@@H]43)cc2n2cncc12 [Ff-181, (4-amino-7-fluoroimidazo[1,5-a]quinoxalin-8-yl)((4aS,9aR)-7-(trifluoromethoxy)-2,3,9,9a-tetrahydroindeno[2,1-b][1,4]oxazin-4(4aH)-yl)methanone] |  | < 100 nM | 
C[C@H](c1ccc(C(F)(F)F)cn1)N(C)C(=O)c1cc2c(cc1F)nc(N)c1cncn12 [Ff-532, (R)-4-amino-7-fluoro-N-methyl-N-(1-(5-(trifluoromethyl)pyridin-2-yl)ethyl)imidazo[1,5-a]quinoxaline-8-carboxamide] | < 100 nM |  | 
Cc1ncc2c(N)nc3cc(F)c(C(=O)N4C[C@@H](C)O[C@@H]5Cc6cc(C(F)(F)F)ccc6[C@@H]54)cc3n12 [Ff-629, (4-amino-7-fluoro-1-methylimidazo[1,5-a]quinoxalin-8-yl)((2R,4aS,9aR)-2-methyl-7-(trifluoromethyl)-2,3,9,9a-tetrahydroindeno[2,1-b][1,4]oxazin-4(4aH)-yl)methanone] | < 100 nM |  | 
Cc1ncn2c1c(N)nc1cnc(C(=O)N3CCO[C@@H]4Cc5cc(OC(F)(F)F)c(F)cc5[C@@H]43)cc12 [Ff-180, (4-amino-3-methylimidazo[1,5-a]pyrido[3,4-e]pyrazin-8-yl)((4aS,9aR)-6-fluoro-7-(trifluoromethoxy)-2,3,9,9a-tetrahydroindeno[2,1-b][1,4]oxazin-4(4aH)-yl)methanone] |  | < 100 nM | 
Nc1nc2cc(F)c(C(=O)N3CCC(F)(F)C[C@@H]3c3ccc(S(F)(F)(F)(F)F)cc3)cc2n2cncc12 [Ff-405, (R)-(4-amino-7-fluoroimidazo[1,5-a]quinoxalin-8-yl)(4,4-difluoro-2-(4-(pentafluoro-λ^6-sulfaneyl)phenyl)piperidin-1-yl)methanone] | < 100 nM |  | 
Nc1nc2cc(F)c(C(=O)N3CC4(CC[C@@H]3c3ccc(C(F)(F)F)cc3)CC4)cc2n2cncc12 (single isomer, unassigned) [Ff-154] |  |  | CC50: < 100 nM
Cc1ncc2c(N)nc3ccc(C(=O)N4CCC[C@@H]5Oc6c(ccc(C(F)(F)F)c6F)[C@@H]54)cc3n12 [Ff-122, (4-amino-1-methylimidazo[1,5-a]quinoxalin-8-yl)((4aS,9bS)-6-fluoro-7-(trifluoromethyl)-3,4,4a,9b-tetrahydrobenzofuro[3,2-b]pyridin-1(2H)-yl)methanone] |  | < 100 nM | 
Nc1nc2cc(F)c(C(=O)N3CC[C@H]4C[C@@H]3c3ccc(C(F)(F)F)cc3O4)cc2n2cncc12 [Ff-365, (4-amino-7-fluoroimidazo[1,5-a]quinoxalin-8-yl)((2S,6R)-9-(trifluoromethyl)-3,4-dihydro-2H-2,6-methanobenzo[b][1,5]oxazocin-5(6H)-yl)methanone] |  | < 100 nM | 
Cc1ncn2c1c(N)nc1cc(F)c(C(=O)N3C[C@H](C)C[C@@H]4Oc5cc(C(F)(F)F)ncc5[C@@H]43)cc12 [Fg-21, (4-amino-7-fluoro-3-methylimidazo[1,5-a]quinoxalin-8-yl)((3R,4aS,9bS)-3-methyl-7-(trifluoromethyl)-3,4,4a,9b-tetrahydrofuro[3,2-b:4,5-c′]dipyridin-1(2H)-yl)methanone] | < 100 nM |  | 
C[C@H]1CN(C(=O)c2cc3c(cn2)nc(N)c2cncn23)[C@H]2c3ccc(OC(F)(F)F)c(F)c3C[C@H]2O1 (single isomer, unassigned) [Ff-194] |  | 100 to 1000 nM | 
C[C@H]1CN(C(=O)c2ccc3nc(N)c4cncn4c3c2)[C@H]2c3cc(F)c(C(F)(F)F)cc3C[C@H]2O1 [Ff-246, (4-aminoimidazo[1,5-a]quinoxalin-8-yl)((2S,4aS,9aR)-6-fluoro-2-methyl-7-(trifluoromethyl)-2,3,9,9a-tetrahydroindeno[2,1-b][1,4]oxazin-4(4aH)-yl)methanone] |  | < 100 nM | 
CN(C(=O)c1cc2c(cc1F)nc(N)c1cncn12)C1CCc2nc(Cl)ccc21 (stereo not drawn) [Ff-208, 4-amino-N-(2-chloro-6,7-dihydro-5H-cyclopenta[b]pyridin-5-yl)-7-fluoro-N-methylimidazo[1,5-a]quinoxaline-8-carboxamide] |  | 100 to 1000 nM | 
Nc1nc2cnc(C(=O)N3CCO[C@@H]4Cc5cc(OC(F)(F)F)ccc5[C@@H]43)cc2n2cncc12 [Ff-182, (4-aminoimidazo[1,5-a]pyrido[3,4-e]pyrazin-8-yl)((4aS,9aR)-7-(trifluoromethoxy)-2,3,9,9a-tetrahydroindeno[2,1-b][1,4]oxazin-4(4aH)-yl)methanone] |  | < 100 nM | 
Nc1nc2cc(F)c(C(=O)N3CCOC[C@@H]3c3ccc(C(F)(F)F)cc3)cc2n2cncc12 [Ff-38, (S)-(4-amino-7-fluoroimidazo[1,5-a]quinoxalin-8-yl)(3-(4-(trifluoromethyl)phenyl)morpholino)methanone] |  | < 100 nM | 

— patent US12448388B2, “PRMT5 inhibitors and uses thereof” (Gilead Sciences, Inc., priority 2023, dated 2025)
